This note sets out measurements from patent US11910795B2, “Natural indole auxin and aminopolycarboxylic acid herbicidal compositions” (Suncor Energy Inc., priority 2013, dated 2024).

Each structure is given as a SMILES string. Where only a bound is given, the exact number is not on record here.

Series [1] has as its system Dandelions. The series can be described thus: Control of dandelions in greenhouse study (Example 2, IBA/EDTA). It is filed as in vivo. Particulars: for control on weeds: Table 3 (FIG. 3), greenhouse, 200 gpa, result in words; for effect on weeds at concentrations greater than 5% by weight / herbicidal effect at concentrations lower than 5% by weight: tested alone; for effect on weeds at concentrations greater than 5% by weight: Table 3; for herbicidal effect at concentrations lower than 5% by weight: Table 3 (IBA: Tr 2-4). The method, then:
(§1) Dandelions and Kentucky Bluegrass were seeded and grown in the greenhouse for at least 10 weeks before treatment. Ready-to-use formulations containing indole-3-butyric acid (IBA) and ethylenediaminetetraacetic acid (EDTA), including ethylenediaminetetraacetic acid tetrasodium salt (EDTA Na4), ethylenediaminetetraacetic acid disodium salt (EDTA Na2), and ethylenediaminetetraacetic acid calcium sodium salt, and combinations of IBA and a chelator were prepared as detailed in Table 3 with the remainder of the formulation being comprised of water. IBA was initially dissolved in KHCO3 when the acid could not be dissolved directly and then diluted in water to the concentration indicated (this is indicated below in Table 3 by the label IBA-K). The prepared formulations were applied to sections of the dandelion and Kentucky Bluegrass plots at a rate of 200 gallons per acre (gpa).
(§2) Injuries to the grass and weeds were visually inspected and rated for 4 weeks using a 0-10 scale: 0=no injury; 10=plant dead. For turfgrass, ratings greater than 3 indicated unacceptable phytotoxicity. The numbers indicate the maximum effect observed on the various plants. When regrowth of the plants following application was observed, it is noted in the table following the overall injury score.

Series [2] is described as follows: Solubility of IBA in aqueous solutions (Example 9). It is filed as physicochemical. An excerpt: The solubility of IBA and its salts was investigated in various aqueous solutions under different pH conditions. The effect of chelators such as EDTA and HEDTA on the solubility of IBA was also investigated. The data provided further evidence of the relatively limited water solubility of the IBA acid (<0.1%).

Series [3] relates to Kentucky Bluegrass. Nature of the series: Injury to Kentucky Bluegrass in greenhouse study (Example 2, IBA/EDTA). Particulars: tested alone, Table 3. It is filed as in vivo. The method, then:
as §1, §2

Series [4] deals with Dandelions. Nature of the series: Field testing control of dandelions in Ontario (Example 5). It is filed as in vivo. Particulars: Table 6 (FIG. 6), 200 gpa, rated 10 and 30 days following application. The method, then: Formulations containing IBA, DTPA, and combinations of IBA with various chelating agents including salts of DTPA, EDTA, ethylenediamine-N,N′-disuccinic acid (EDDS), N-(hydroxyethyl)-ethylenediaminetriacetic acid (HEDTA), and lignosulfonic acid were prepared as detailed in Table 6 the solutions were prepared in water at the concentrations indicated ([…]). The formulations were applied at a rate of 200 gpa onto sections of a plot containing dandelions and other weeds in Ontario, Canada. Injuries to the grass and dandelions were visually inspected and rated 10 days and 30 days following application of the formulations. Performance of the formulations was evaluated based on the percentage of control of the dandelions observed. Injuries to the grass were also rated using a 0-10 scale: 0=no injury; 10=plant dead, severe injury.

Series [5] is described as follows: Dissolving IBA when preparing formulations (Example 2). It is filed as physicochemical. Particulars: Treatment 10, 12 and 14 of Table 3. The method, then: as §1
Series [6] deals with buckhorn plantains. Nature of the series: Field testing control of buckhorn plantain in North Carolina (Example 4). Particulars: Table 5 (FIG. 5). It is filed as in vivo. The method, then:
The formulations were applied at a rate of 200 gpa onto sections of a plot containing buckhorn plantains and other weeds in North Carolina, U.S.A. A second application of the formulations was made 21 days following the initial application. The sections were visually inspected and rated over the course of 56 days following the initial application. Performance of the formulations was evaluated based on the percentage control of the buckhorn plantains observed in each section.

As for `O=C(O)CN(CCN(CC(=O)O)CC(=O)O)CC(=O)O` [EDTA, ethylenediaminetetraacetic acid], in series [1], the control on weeds result is reported as “low to moderate control”, the “effect on weeds at concentrations greater than 5% by weight” value is given as “burns the leaves of weeds” and the “herbicidal effect at concentrations lower than 5% by weight” value was “limited herbicidal effect”. For the same compound, in series [1] (Table 3, after application), the “regrowth of the weeds” value is on record as “grow back after 14 or 28 DAT”.
On to `O=C(O)CCCc1c[nH]c2ccccc12` [IBA, indole-3-butyric acid], for which, in series [2] (1% solution of IBA), the “dissolution of a 1% solution under alkaline conditions” value is given as “dissolves well” and the “pH at which a 1% solution was stable” value was above 6. The same compound yielded a water solubility in series [2] (IBA acid in water) below 0.1%. The “injury to the grass at concentrations greater than 5% by weight” value in series [3] was “severe injury”. Further, in series [1], the control on weeds result is given as “low to moderate control”, the “effect on weeds at concentrations greater than 5% by weight” value is reported as “exhibited control of the weeds” and the “herbicidal effect at concentrations lower than 5% by weight” value was “limited herbicidal effect”. Moreover, in series [4], the “control of the dandelions” value was “moderate control”. Also, in series [5], the “dissolution of IBA in EDTA-Na4” value is given as “can be dissolved in EDTA-Na4 directly without addition of KHCO3”.
Take `O=C(O)CN(CCN(CC(=O)O)CC(=O)O)CCN(CC(=O)O)CC(=O)O` [DTPA, diethylenetriaminepentaacetic acid]: the “time after which the weeds began to exhibit regrowth” value in series [6] is reported as above 25 days. Besides, the “control on the buckhorn plantains” value in series [6] (200 gpa, second application after 21 days, rated over 56 days) is recorded as “moderate control”. Also, the “control of the dandelions” value in series [4] is “moderate control”.
